This test deals with T1, rabbit aldolase (Oryctolagus cuniculus, UniProt P00883).
T1 construct: gene ALDOA; commercial native enzyme (Sigma A8811)
T1 sequence (P00883 2-364): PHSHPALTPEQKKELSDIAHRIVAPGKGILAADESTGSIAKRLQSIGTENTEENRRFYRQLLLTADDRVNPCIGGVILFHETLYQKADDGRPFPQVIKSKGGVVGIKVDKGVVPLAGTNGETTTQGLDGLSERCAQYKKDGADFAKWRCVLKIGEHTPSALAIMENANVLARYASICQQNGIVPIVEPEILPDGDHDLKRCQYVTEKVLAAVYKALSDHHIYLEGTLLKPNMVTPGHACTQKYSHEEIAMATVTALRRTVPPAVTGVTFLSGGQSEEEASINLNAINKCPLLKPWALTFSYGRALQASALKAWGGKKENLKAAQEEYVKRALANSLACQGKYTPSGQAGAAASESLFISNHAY
Briefly: LC-MS time course of E4P and DHAP formation, SBP made in situ by PPi-PFK. The test is classed as biochemical. Conditions: 100 mM Tris-HCl pH 7 at 55 °C, 5 mM MgCl2, 5 mM PPi, 1 mM S7P, 4 units aldolase.

Each structure is given as a SMILES string.

This note sets out measurements from article PMC7029132, “The pentose phosphate pathway of cellulolytic clostridia relies on 6-phosphofructokinase instead of transaldolase” (The Journal of Biological Chemistry, 2019).

For `O=C(COP(=O)(O)O)[C@@H](O)[C@H](O)[C@H](O)[C@H](O)COP(=O)(O)O` [SBP], the “LC-MS time course of E4P and DHAP formation, SBP made in situ by PPi-PFK” value was “rabbit aldolase was able to convert the formed SBP to E4P and DHAP”.
